Laboratory results from patent publication US9937151B2, “Carbapenem antibacterials with gram-negative activity” (priority 2010, dated 2018).
Converted amounts (≈) assume the structure as drawn.

Tested on: G(−) bacterial strains
Test: Dilution antimicrobial susceptibility tests (MIC, NCCLS agar dilution / broth dilution)
Format: cell-based, Gram-negative organisms
Conditions: unit assumed
Protocol: The MIC (minimum inhibitory concentration) was determined by the NCCLS (National Committee for Clinical Laboratory Standards) methods 2000. Methods for dilution antimicrobial susceptibility testing for bacteria that growth aerobically (M7-A5, vol. 20, No. 2). The agar dilution method for determining antimicrobial susceptibility was carried out using Mueller-Hinton agar. A final inoculum of 10^4 CFU/spot was applied with an inoculation device. Broth dilution tests were performed with 5×10^5 CFU/well in 96 well plates. The susceptibilities of streptococci were determined by Mueller-Hinton agar supplemented with 5% sheep blood. All assays were run with the indicated control strains, available from the ATCC (American Type Culture Collection, Rockville, Md.).
Abbreviations used in Table 1 are defined as follows: Cf-R: Ceftazidime Resistance, Ci-R: Ciprofloxacin Resistance, Gen-R: Gentamycin Resistance, Imp-R: Imipenem Resistance, Mp-R: Meropenem Resistance, Ofx-R: Ofloxacin Resistance, B+: β-lactamase Production, AmpC: AmpC-lactamase Hyper production, CBPase: Carbapenemase Production.

[1] = strain #1 Acinetobacter calcoaceticus
[2] = strain #2 Acinetobacter baumannii, Cf-R, Ci-R
[3] = strain #3 Acinetobacter baumannii, Cf-R, Ci-R, Mp-I
[4] = strain #4 Acinetobacter baumannii, Cf-R, Imp-I, CBPase
[5] = strain #7 Enterobacter aerogenes
[6] = strain #8 Enterobacter cloacae, Cf-R, B+
[7] = strain #9 Enterobacter cloacae, Cf-R
[8] = strain #10 Escherichia coli, Ci-R
[9] = strain #11 Escherichia coli, Ci-R, AmpC
[10] = strain #15 Klebsiella pneumoniae
[11] = strain #16 Moraxella catarrhalis
[12] = strain #21 Providencia rettgeri
[13] = strain #22 Salmonella typhimurium
[14] = strain #25 Shigella dysenteriae
[15] = strain #28 Stenotrophomonas maltophilia
[16] = strain #29 Pseudomonas aeruginosa
[17] = strain #30 Pseudomonas aeruginosa
[18] = strain #31 Pseudomonas aeruginosa, Ofx-R
[19] = strain #32 Pseudomonas aeruginosa, Cf-R
[20] = strain #33 Pseudomonas aeruginosa, Ci-R
[21] = strain #34 Pseudomonas aeruginosa, Gen-R
[22] = strain #35 Pseudomonas aeruginosa, Ip-R
[23] = strain #36 Pseudomonas aeruginosa, Cf-R, Ci-R, Mp-R

`C[C@@H](O)C1C(=O)N2C(C(=O)O)=C(CN3CC[C@H](C(N)=O)C3)[C@H](C)C12` (stereo partly drawn) [Compound 12] showed an MIC [1] of 0.5 µg/mL (≈ 1.48 µM), an MIC [2] of 0.5 µg/mL (≈ 1.48 µM) and an MIC [3] of 2 µg/mL (≈ 5.93 µM). The MIC [4] was 1 µg/mL (≈ 2.96 µM), the MIC (strain #5 Citrobacter diversus) was 0.13 µg/mL (≈ 0.385 µM) and the MIC (strain #6 Citrobacter freundii) was 0.25 µg/mL (≈ 0.741 µM). For the same molecule, the MIC [5] was 1 µg/mL (≈ 2.96 µM), the MIC [6] was 0.13 µg/mL (≈ 0.385 µM) and the MIC [7] was 0.25 µg/mL (≈ 0.741 µM). The MIC [8] was 0.13 µg/mL (≈ 0.385 µM), the MIC [9] was 0.13 µg/mL (≈ 0.385 µM) and the MIC (strain #12 Escherichia coli) was 0.13 µg/mL (≈ 0.385 µM). For the same molecule, the MIC (strain #13 Escherichia coli) was 0.25 µg/mL (≈ 0.741 µM), the MIC (strain #14 Klebsiella oxytoca) was 0.5 µg/mL (≈ 1.48 µM) and the MIC [10] was 0.5 µg/mL (≈ 1.48 µM). It also gave an MIC [11] of at most 0.008 µg/mL, an MIC (strain #17 Morganella Morganii) of 2 µg/mL (≈ 5.93 µM) and an MIC (strain #18 Morganella Morganii) of 1 µg/mL (≈ 2.96 µM). The MIC (strain #19 Proteus vulgaris) was 0.5 µg/mL (≈ 1.48 µM), the MIC (strain #20 Proteus mirabilis) was 0.25 µg/mL (≈ 0.741 µM) and the MIC [12] was 1 µg/mL (≈ 2.96 µM). It also gave an MIC [13] of 0.25 µg/mL (≈ 0.741 µM), an MIC (strain #23 Serratia marcescens) of 0.5 µg/mL (≈ 1.48 µM) and an MIC (strain #24 Serratia marcescens) of 1 µg/mL (≈ 2.96 µM). The MIC [14] was 0.25 µg/mL (≈ 0.741 µM), the MIC (strain #26 Shigella sonnei) was 0.25 µg/mL (≈ 0.741 µM) and the MIC (strain #27 Shigella flexneri) was 0.25 µg/mL (≈ 0.741 µM). The MIC [15] was 0.25 µg/mL (≈ 0.741 µM), the MIC [16] was 4 µg/mL (≈ 11.9 µM) and the MIC [17] was 4 µg/mL (≈ 11.9 µM). It also gave an MIC [18] of 1 µg/mL (≈ 2.96 µM), an MIC [19] of 4 µg/mL (≈ 11.9 µM) and an MIC [20] of 4 µg/mL (≈ 11.9 µM). It also gave an MIC [21] of 4 µg/mL (≈ 11.9 µM), an MIC [22] of 8 µg/mL (≈ 23.7 µM) and an MIC [23] of 32 µg/mL (≈ 94.8 µM).
In the case of `C[C@@H](O)C1C(=O)N2C(C(=O)O)=C(CN3CC[C@H](C(=O)NS(N)(=O)=O)C3)[C@H](C)C12` (stereo partly drawn) [Compound 19], the MIC [1] is reported as 0.5 µg/mL (≈ 1.2 µM), the MIC [2] is reported as 0.5 µg/mL (≈ 1.2 µM) and the MIC [3] is reported as 2 µg/mL (≈ 4.8 µM). It also gave an MIC [4] of 1 µg/mL (≈ 2.4 µM), an MIC (strain #5 Citrobacter diversus) of 0.25 µg/mL (≈ 0.6 µM) and an MIC (strain #6 Citrobacter freundii) of 0.25 µg/mL (≈ 0.6 µM). For the same molecule, the MIC [5] was 1 µg/mL (≈ 2.4 µM), the MIC [6] was 0.25 µg/mL (≈ 0.6 µM) and the MIC [7] was 0.5 µg/mL (≈ 1.2 µM). For the same molecule, the MIC [8] was 0.25 µg/mL (≈ 0.6 µM), the MIC [9] was 0.25 µg/mL (≈ 0.6 µM) and the MIC (strain #12 Escherichia coli) was 0.25 µg/mL (≈ 0.6 µM). The MIC (strain #13 Escherichia coli) was 0.25 µg/mL (≈ 0.6 µM), the MIC (strain #14 Klebsiella oxytoca) was 0.5 µg/mL (≈ 1.2 µM) and the MIC [10] was 0.5 µg/mL (≈ 1.2 µM). It also gave an MIC [11] of at most 0.008 µg/mL, an MIC (strain #17 Morganella Morganii) of 4 µg/mL (≈ 9.6 µM) and an MIC (strain #18 Morganella Morganii) of 2 µg/mL (≈ 4.8 µM). The MIC (strain #19 Proteus vulgaris) was 1 µg/mL (≈ 2.4 µM), the MIC (strain #20 Proteus mirabilis) was 0.25 µg/mL (≈ 0.6 µM) and the MIC [12] was 1 µg/mL (≈ 2.4 µM). It also gave an MIC [13] of 0.25 µg/mL (≈ 0.6 µM), an MIC (strain #23 Serratia marcescens) of 1 µg/mL (≈ 2.4 µM) and an MIC (strain #24 Serratia marcescens) of 1 µg/mL (≈ 2.4 µM). The MIC [14] was 0.25 µg/mL (≈ 0.6 µM), the MIC (strain #26 Shigella sonnei) was 0.25 µg/mL (≈ 0.6 µM) and the MIC (strain #27 Shigella flexneri) was 0.25 µg/mL (≈ 0.6 µM). It also gave an MIC [15] of 0.25 µg/mL (≈ 0.6 µM), an MIC [16] of 4 µg/mL (≈ 9.6 µM) and an MIC [17] of 4 µg/mL (≈ 9.6 µM). The MIC [18] was 1 µg/mL (≈ 2.4 µM), the MIC [19] was 4 µg/mL (≈ 9.6 µM) and the MIC [20] was 4 µg/mL (≈ 9.6 µM). For the same molecule, the MIC [21] was 4 µg/mL (≈ 9.6 µM), the MIC [22] was 8 µg/mL (≈ 19.2 µM) and the MIC [23] was 32 µg/mL (≈ 76.8 µM).
`C[C@@H](O)C1C(=O)N2C(C(=O)O)=C(CN3CC[C@H](N)C3)[C@H](C)C12` (stereo partly drawn) [Compound 27] gave an MIC [1] of 0.25 µg/mL (≈ 0.808 µM), an MIC [2] of 0.5 µg/mL (≈ 1.62 µM) and an MIC [3] of 2 µg/mL (≈ 6.46 µM). For the same molecule, the MIC [4] was 1 µg/mL (≈ 3.23 µM), the MIC (strain #5 Citrobacter diversus) was 0.25 µg/mL (≈ 0.808 µM) and the MIC (strain #6 Citrobacter freundii) was 0.25 µg/mL (≈ 0.808 µM). It also gave an MIC [5] of 1 µg/mL (≈ 3.23 µM), an MIC [6] of 0.25 µg/mL (≈ 0.808 µM) and an MIC [7] of 0.5 µg/mL (≈ 1.62 µM). For the same molecule, the MIC [8] was 0.25 µg/mL (≈ 0.808 µM), the MIC [9] was 0.25 µg/mL (≈ 0.808 µM) and the MIC (strain #12 Escherichia coli) was 0.25 µg/mL (≈ 0.808 µM). For the same molecule, the MIC (strain #13 Escherichia coli) was 0.25 µg/mL (≈ 0.808 µM), the MIC (strain #14 Klebsiella oxytoca) was 0.5 µg/mL (≈ 1.62 µM) and the MIC [10] was 0.5 µg/mL (≈ 1.62 µM). It also gave an MIC [11] of at most 0.008 µg/mL, an MIC (strain #17 Morganella Morganii) of 4 µg/mL (≈ 12.9 µM) and an MIC (strain #18 Morganella Morganii) of 2 µg/mL (≈ 6.46 µM). It also gave an MIC (strain #19 Proteus vulgaris) of 1 µg/mL (≈ 3.23 µM), an MIC (strain #20 Proteus mirabilis) of 0.25 µg/mL (≈ 0.808 µM) and an MIC [12] of 1 µg/mL (≈ 3.23 µM). The MIC [13] was 0.25 µg/mL (≈ 0.808 µM), the MIC (strain #23 Serratia marcescens) was 0.5 µg/mL (≈ 1.62 µM) and the MIC (strain #24 Serratia marcescens) was 1 µg/mL (≈ 3.23 µM). For the same molecule, the MIC [14] was 0.5 µg/mL (≈ 1.62 µM), the MIC (strain #26 Shigella sonnei) was 0.25 µg/mL (≈ 0.808 µM) and the MIC (strain #27 Shigella flexneri) was 0.13 µg/mL (≈ 0.42 µM). It also gave an MIC [15] of 0.13 µg/mL (≈ 0.42 µM), an MIC [16] of 2 µg/mL (≈ 6.46 µM) and an MIC [17] of 2 µg/mL (≈ 6.46 µM). For the same molecule, the MIC [18] was 0.5 µg/mL (≈ 1.62 µM), the MIC [19] was 2 µg/mL (≈ 6.46 µM) and the MIC [20] was 2 µg/mL (≈ 6.46 µM). The MIC [21] was 2 µg/mL (≈ 6.46 µM), the MIC [22] was 4 µg/mL (≈ 12.9 µM) and the MIC [23] was 8 µg/mL (≈ 25.9 µM).
`CC(=O)N[C@H]1CCN(CC2=C(C(=O)O)N3C(=O)C([C@@H](C)O)C3[C@H]2C)C1` (stereo partly drawn) [Compound 32] gave an MIC [1] of 2 µg/mL (≈ 5.69 µM), an MIC [2] of 2 µg/mL (≈ 5.69 µM) and an MIC [3] of 4 µg/mL (≈ 11.4 µM). It also gave an MIC [4] of 2 µg/mL (≈ 5.69 µM), an MIC (strain #5 Citrobacter diversus) of 1 µg/mL (≈ 2.85 µM) and an MIC (strain #6 Citrobacter freundii) of 1 µg/mL (≈ 2.85 µM). The MIC [5] was 4 µg/mL (≈ 11.4 µM), the MIC [6] was 1 µg/mL (≈ 2.85 µM) and the MIC [7] was 2 µg/mL (≈ 5.69 µM). It also gave an MIC [8] of 1 µg/mL (≈ 2.85 µM), an MIC [9] of 0.5 µg/mL (≈ 1.42 µM) and an MIC (strain #12 Escherichia coli) of 1 µg/mL (≈ 2.85 µM). The MIC (strain #13 Escherichia coli) was 1 µg/mL (≈ 2.85 µM), the MIC (strain #14 Klebsiella oxytoca) was 2 µg/mL (≈ 5.69 µM) and the MIC [10] was 2 µg/mL (≈ 5.69 µM). For the same molecule, the MIC [11] was 0.016 µg/mL (≈ 0.0455 µM), the MIC (strain #17 Morganella Morganii) was 8 µg/mL (≈ 22.8 µM) and the MIC (strain #18 Morganella Morganii) was 4 µg/mL (≈ 11.4 µM). It also gave an MIC (strain #19 Proteus vulgaris) of 4 µg/mL (≈ 11.4 µM), an MIC (strain #20 Proteus mirabilis) of 1 µg/mL (≈ 2.85 µM) and an MIC [12] of 4 µg/mL (≈ 11.4 µM). The MIC [13] was 1 µg/mL (≈ 2.85 µM), the MIC (strain #23 Serratia marcescens) was 2 µg/mL (≈ 5.69 µM) and the MIC (strain #24 Serratia marcescens) was 2 µg/mL (≈ 5.69 µM). The MIC [14] was 1 µg/mL (≈ 2.85 µM), the MIC (strain #26 Shigella sonnei) was 1 µg/mL (≈ 2.85 µM) and the MIC (strain #27 Shigella flexneri) was 0.5 µg/mL (≈ 1.42 µM). For the same molecule, the MIC [15] was 1 µg/mL (≈ 2.85 µM), the MIC [16] was 16 µg/mL (≈ 45.5 µM) and the MIC [17] was 16 µg/mL (≈ 45.5 µM). The MIC [18] was 4 µg/mL (≈ 11.4 µM), the MIC [19] was 16 µg/mL (≈ 45.5 µM) and the MIC [20] was 16 µg/mL (≈ 45.5 µM). For the same molecule, the MIC [21] was 16 µg/mL (≈ 45.5 µM), the MIC [22] was 32 µg/mL (≈ 91.1 µM) and the MIC [23] was over 32 µg/mL.
